Measured values reported in patent publication US20150296780A1, “MOLLUSCICIDE” (Syngenta Participations AG, priority 2008, published 2015).

Legend:
Assay type in all cases: in vivo
Arion fasciatus [1] = experiment: Forced ingestion trial of azoxystrobin (SC formulation) against various slug species (Example 4); conditions: 250SC formulation
Protocol: (§1) Adult D. reticulatum were field-collected from an irrigated plot of mixed herbage and maintained in plastic boxes lined with moist, unbleached, absorbent paper and under controlled environmental conditions (12 hour photoperiod, 10° C., 90% RH). Slugs were fed ad. lib. on wheat grain and a mixture of fresh foliage for a period of up to, but not exceeding, one week prior to testing. Slugs were then starved for a period of 48 h before treatment.
(§2) Individual slugs were weighed and anaesthetized using CO2 for a period of 10-20 minutes. Test solutions were incorporated into a warm agar jelly (1.0% w/v) to reduce the risk of regurgitation. Twenty μl aliquots of warm agar mix was then injected into the buccal cavity of a single slug using a fine glass micro-syringe and gently eased into the slug crop. Individual slugs were then placed into labelled Petri dishes lined with moist, unbleached, absorbent paper. Following application of treatments, slugs were maintained under controlled environmental conditions (12 hr photoperiod, 10° C., 90% RH), and slug health recorded over the subsequent three days. Slug health was classified into one of four categories: • Healthy (showing no symptoms) • Affected (showing some symptoms of poisoning, excessive mucus production/deformity) • Moribund (severely affected/paralysed, unable to move in response to gentle prodding) • Dead
(§3) The methods used in this trial were the same as those described in Example 2, except that the following slug species were collected and tested: Deroceras reticulatum, Anion distinctus, Anion fasciatus and Tandonia budapestensis
(§4) For each treatment, at least 20 slugs were injected. […] The results are shown in Table 7, presented as a percentage of the total number of slugs tested for each treatment.

Arion distinctus [2] = experiment: as above; conditions: 250SC formulation
Protocol: as §1, §2, §3, §4

Deroceras reticulatum [3] = experiment: as above; conditions: 250SC formulation
Protocol: as §1, §2, §3, §4

Tandonia budapestensis [4] = experiment: as above; conditions: 250SC formulation
Protocol: as §1, §2, §3, §4

Arion fasciatus [5] = experiment: Forced ingestion trial of azoxystrobin (FS formulation) against various slug species (Example 3); conditions: 100FS formulation
Protocol: as §1, §2, §3
(§5) For each treatment, 20 slugs were injected. […] The results are shown in Table 5, presented as a percentage of the total number of slugs tested for each treatment.

Arion distinctus [6] = experiment: as above; conditions: 100FS formulation
Protocol: as §1, §2, §3, §5

Tandonia budapestensis [7] = experiment: as above; conditions: 100FS formulation
Protocol: as §1, §2, §3, §5

Deroceras reticulatum [8] = experiment: Forced ingestion study on D. reticulatum (Example 1); conditions: for Number of slugs Affected / Number of slugs Dead / Number of slugs Healthy: of 20 slugs
Protocol: Forced ingestion studies were setup using the Field Slug, Deroceras reticulatum. A formulation containing the strobilurin azoxystrobin was injected directly into the gut of the slugs. Details of the formulation (Dynasty® 100FS) are: […]
Slugs were field-collected, and starved for 48 hours prior to forced ingestion studies. Individual slugs were weighed and anaesthetized using carbon dioxide for 10 to 20 minutes. Test solutions were incorporated into an agar jelly (1.0% w/v) to reduce the risk of regurgitation. For each slug, ten ul aliquots of warm agar mix were injected into the buccal cavity using a fine glass micro-syringe and gently eased into the slug crop. Individual slugs were then placed into labelled Petri dishes lined with moist, unbleached, absorbent paper. For each treatment, 20 slugs were injected. An untreated control of warm agar gel was injected for comparison purposes.
Treated slugs were maintained under controlled environmental conditions (12 hour photoperiod, 15° C., 90% relative humidity), and slug health assessments recorded over the three subsequent days. Slug health was classified into one of the following categories: • Healthy: showing no symptoms • Affected: showing some symptoms of poisoning, excessive mucus production/deformity • Dead

Deroceras reticulatum [9] = experiment: Forced ingestion trial of Deroceras reticulatum using various strobilurin compounds (Example 2); conditions: for slug mortality (in words): 0.5 mg a.i./slug
Protocol: as §1, §2
For each treatment, 20 slugs were injected. […] The results are shown in Table 3, presented as a percentage of the total number of slugs tested for each treatment.

D. reticulatum = experiment: Tests to establish potential effect of surfactants on molluscicidal activity, forced ingestion (Example 6)
Protocol: as §1, §2
The methods used in this trial were the same as those described in Example 2. The treatments tested are listed in Table 10, and results are in Table 11, presented as a percentage of the total number of slugs tested for each treatment. For each treatment 20 slugs were tested. For ease of comparison, the concentrations of each treatment applied were equivalent to the amount of each component that would be applied in a treatment of Amistar® at a rate of 0.1 mg a.i./slug.

Deroceras reticulatum [10] = experiment: Forced ingestion trial of azoxystrobin (FS formulation) and picoxystrobin against various slug species (Example 3)
Protocol: as §1
as §2, with “Dead […]” for “Dead”

[11] = 0.0001 mg azoxystrobin/slug, 24 hours
[12] = 0.0001 mg azoxystrobin/slug, 48 hours
[13] = 0.0001 mg azoxystrobin/slug, 72 hours
[14] = 0.001 mg azoxystrobin/slug, 24 hours
[15] = 0.001 mg azoxystrobin/slug, 48 hours
[16] = 0.001 mg azoxystrobin/slug, 72 hours
[17] = 0.01 mg azoxystrobin/slug, 24 hours
[18] = 0.01 mg azoxystrobin/slug, 48 hours
[19] = 0.01 mg azoxystrobin/slug, 72 hours
[20] = 0.1 mg azoxystrobin/slug, 24 hours
[21] = 0.1 mg azoxystrobin/slug, 48 hours
[22] = 0.1 mg azoxystrobin/slug, 72 hours
[23] = 1 mg azoxystrobin/slug, 24 hours
[24] = 1 mg azoxystrobin/slug, 48 hours
[25] = 1 mg azoxystrobin/slug, 72 hours
[26] = 0.1 mg a.i./slug, 72 hours after forced ingestion

## CO/C=C(/C(=O)OC)c1ccccc1Oc1cc(Oc2ccccc2C#N)ncn1 [azoxystrobin]
Arion fasciatus [1]
  efficacy against slug species (in words): effective against all four slug species tested
Arion distinctus [2]
  efficacy against slug species (in words): effective against all four slug species tested
Deroceras reticulatum [3]
  efficacy against slug species (in words): effective against all four slug species tested
Tandonia budapestensis [4]
  efficacy against slug species (in words): effective against all four slug species tested
Arion fasciatus [5]; Arion fasciatus
  efficacy against slug species (in words): effective against all three species
Arion fasciatus [5]; A. fasciatus
  concentration to kill approximately 99% of the population (probit analysis): 0.904 mg a.i./slug
Arion distinctus [6]; Arion distinctus
  efficacy against slug species (in words): effective against all three species
Arion distinctus [6]; A. distinctus
  concentration to kill approximately 99% of the population (probit analysis): 0.183 mg a.i./slug
Tandonia budapestensis [7]; Tandonia budapestensis
  efficacy against slug species (in words): effective against all three species
Tandonia budapestensis [7]; T. budapestensis
  concentration to kill approximately 99% of the population (probit analysis): 0.163 mg a.i./slug
Deroceras reticulatum [8]; [11]
  Number of slugs Affected: 0
  Number of slugs Dead: 0
  Number of slugs Healthy: 20
Deroceras reticulatum [8]; [12]
  Number of slugs Affected: 0
  Number of slugs Dead: 0
  Number of slugs Healthy: 20
Deroceras reticulatum [8]; [13]
  Number of slugs Affected: 0
  Number of slugs Dead: 0
  Number of slugs Healthy: 20
Deroceras reticulatum [8]; [14]
  Number of slugs Affected: 4
  Number of slugs Dead: 0
  Number of slugs Healthy: 16
Deroceras reticulatum [8]; [15]
  Number of slugs Affected: 2
  Number of slugs Dead: 4
  Number of slugs Healthy: 14
Deroceras reticulatum [8]; [16]
  Number of slugs Affected: 2
  Number of slugs Dead: 4
  Number of slugs Healthy: 14
Deroceras reticulatum [8]; [17]
  Number of slugs Affected: 6
  Number of slugs Dead: 2
  Number of slugs Healthy: 12
Deroceras reticulatum [8]; [18]
  Number of slugs Affected: 6
  Number of slugs Dead: 6
  Number of slugs Healthy: 8
Deroceras reticulatum [8]; [19]
  Number of slugs Affected: 6
  Number of slugs Dead: 6
  Number of slugs Healthy: 8
Deroceras reticulatum [8]; [20]
  Number of slugs Affected: 2
  Number of slugs Dead: 16
  Number of slugs Healthy: 2
Deroceras reticulatum [8]; [21]
  Number of slugs Affected: 0
  Number of slugs Dead: 18
  Number of slugs Healthy: 2
Deroceras reticulatum [8]; [22]
  Number of slugs Affected: 0
  Number of slugs Dead: 18
  Number of slugs Healthy: 2
Deroceras reticulatum [8]; [23]
  Number of slugs Affected: 0
  Number of slugs Dead: 20
  Number of slugs Healthy: 0
Deroceras reticulatum [8]; [24]
  Number of slugs Affected: 0
  Number of slugs Dead: 20
  Number of slugs Healthy: 0
Deroceras reticulatum [8]; [25]
  Number of slugs Affected: 0
  Number of slugs Dead: 20
  Number of slugs Healthy: 0
Deroceras reticulatum [8]; efficacy increases with concentration and with time
  activity against D. reticulatum slugs (in words): active against D. reticulatum slugs
Deroceras reticulatum [9]; Deroceras reticulatum, treatments 1 to 4 (Amistar 250SC)
  mean concentration that kills 99% of the population (probit analysis): 0.068 mg a.i./slug
Deroceras reticulatum [9]; treatments 1 to 4
  killing of slugs (in words): highly effective at killing slugs
D. reticulatum; [26]
  Affected %: 12.5%
  Dead or Moribund %: 42.5%
  Healthy %: 45%
D. reticulatum; azoxystrobin additionally present with surfactant/formulation (treatment 4)
  slug mortality: 100%

## CO/N=C(/C1=NOCCO1)c1ccccc1Oc1ncnc(Oc2ccccc2Cl)c1F [fluoxastrobin]
Deroceras reticulatum [9]
  slug mortality (in words): significant levels of slug mortality

## CO/C=C(/C(=O)OC)c1ccccc1COc1cccc(C(F)(F)F)n1 [picoxystrobin]
Deroceras reticulatum [10]; Deroceras reticulatum, treatments 1 to 4 (Acanto 250SC)
  mean concentration that kills 99% of the population (probit analysis): 0.198 mg a.i./slug
Deroceras reticulatum [10]; doses equivalent to 0.05 mg a.i./slug or more
  killing of slugs (in words): highly effective at killing slugs

## CON=C(C(=O)OC)c1ccccc1CON=C(C)c1cccc(C(F)(F)F)c1 [trifloxystrobin]
Deroceras reticulatum [9]
  slug mortality (in words): significant levels of slug mortality
